Assay results from ChEMBL document CHEMBL1201862, “PubChem BioAssay data set” (2004).
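1) Cells in 96-well plates. 2) Compound, 48 h, 5 concentrations. 3) Linear interpolation between surrounding doses. 4) Unreached endpoint = highest concentration. GI50 marks 50% less growth.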 Activity calls are given as the source filed them. Rule as the data show it: active = GI50 up to about 1.1 µM and inactive = higher.

Tests used:
Experiment in all cases: growth of human tumour cells (NCI), 48 h
BT-549 = tested on: BT-549
CAKI-1 = tested on: CAKI-1
DU-145 = tested on: DU-145
HT-29 = tested on: HT-29
Hs-578T = tested on: Hs-578T
MCF7 = tested on: MCF7
MDA-MB-231 = tested on: MDA-MB-231
MOLT-4 = tested on: MOLT-4
NCI-H23 = tested on: NCI-H23
NCI-H460 = tested on: NCI-H460
NCI/ADR-RES = tested on: NCI/ADR-RES
OVCAR-4 = tested on: OVCAR-4
SW-620 = tested on: SW-620
T47D = tested on: T47D
U-251 = tested on: U-251
UO-31 = tested on: UO-31
NCI-H522 = tested on: NCI-H522
A498 = tested on: A498

Structure (SMILES)	GI50 (BT-549)	GI50 (CAKI-1)	GI50 (DU-145)	GI50 (HT-29)	GI50 (Hs-578T)	GI50 (MCF7)	GI50 (MDA-MB-231)	GI50 (MOLT-4)	GI50 (NCI-H23)	GI50 (NCI-H460)	GI50 (NCI/ADR-RES)	GI50 (OVCAR-4)	GI50 (SW-620)	GI50 (T47D)	GI50 (U-251)	GI50 (UO-31)	GI50 (NCI-H522)	GI50 (A498)
Cc1ccnn1CCc1ccc(Cl)cc1Cl	13.6 µM (inactive)	28.1 µM (inactive)	37.4 µM (inactive)	36.8 µM (inactive)	22.9 µM (inactive)	31.9 µM (inactive)	29.3 µM (inactive)	13.1 µM (inactive)	24.8 µM (inactive)	27.2 µM (inactive)	6.82 µM (inactive)	11.7 µM (inactive)	54.8 µM (inactive)	8.97 µM (inactive)	29.1 µM (inactive)	4.63 µM (inactive)		
CCOC(=O)c1c(-c2cccc(Cl)c2)c(C(=O)OC)c(C)c2sc(C=O)nc12	17.3 µM (inactive)	17.5 µM (inactive)	17.7 µM (inactive)	21 µM (inactive)	21 µM (inactive)	17.8 µM (inactive)	15.6 µM (inactive)	12.8 µM (inactive)	51.9 µM (inactive)	19.5 µM (inactive)	25.8 µM (inactive)	20 µM (inactive)	48.4 µM (inactive)	14.8 µM (inactive)	17.7 µM (inactive)	17.8 µM (inactive)	16 µM (inactive)	
CCOP(=O)(OCC)C(Nc1ccc(C(=O)O)cc1)c1ccc(C(Nc2ccc(C(=O)O)cc2)P(=O)(OCC)OCC)cc1 (stereo not drawn)	> 100 µM (inactive)	> 100 µM (inactive)	> 100 µM (inactive)	> 100 µM (inactive)	> 100 µM (inactive)		> 100 µM (inactive)	> 100 µM (inactive)	> 100 µM (inactive)	> 100 µM (inactive)	> 100 µM (inactive)	> 100 µM (inactive)	> 100 µM (inactive)	> 100 µM (inactive)	> 100 µM (inactive)	> 100 µM (inactive)	> 100 µM (inactive)	> 100 µM (inactive)
CCCNC(C#N)c1ccc(C(C#N)NCCC)cc1 (stereo not drawn)	> 100 µM (inactive)	> 100 µM (inactive)	> 100 µM (inactive)	> 100 µM (inactive)	> 100 µM (inactive)		> 100 µM (inactive)	37.3 µM (inactive)	> 100 µM (inactive)	> 100 µM (inactive)	50.2 µM (inactive)	> 100 µM (inactive)	> 100 µM (inactive)	> 100 µM (inactive)	> 100 µM (inactive)	> 100 µM (inactive)	> 100 µM (inactive)	> 100 µM (inactive)
COc1cc(C2C3=C(N=C4SC(C(C)=O)=C(C)N42)c2ccccc2CC3)cc(OC)c1OC (stereo not drawn)	> 100 µM (inactive)		> 100 µM (inactive)	64.4 µM (inactive)	50.4 µM (inactive)	75.5 µM (inactive)	49.2 µM (inactive)	> 10 µM (inactive)	> 100 µM (inactive)		78.9 µM (inactive)	> 100 µM (inactive)	> 100 µM (inactive)	11.4 µM (inactive)	> 100 µM (inactive)	> 100 µM (inactive)		> 100 µM (inactive)
CCOC(=O)CNC(=O)C(CSCc1ccc(Br)cc1)NC(=O)CCC(N)C(=O)OCC (stereo not drawn)	> 50 µM (inactive)	> 50 µM (inactive)	> 50 µM (inactive)	> 50 µM (inactive)	> 50 µM (inactive)	> 50 µM (inactive)	> 50 µM (inactive)	> 50 µM (inactive)	> 50 µM (inactive)	> 50 µM (inactive)	> 50 µM (inactive)	> 50 µM (inactive)	> 50 µM (inactive)		> 50 µM (inactive)	> 50 µM (inactive)	> 50 µM (inactive)	
Nc1nc(Cl)cc(NCC2(CCO)CCC2)n1	32.7 µM (inactive)	> 100 µM (inactive)	> 100 µM (inactive)	> 100 µM (inactive)	> 100 µM (inactive)	> 100 µM (inactive)	> 100 µM (inactive)	> 100 µM (inactive)	> 100 µM (inactive)	> 100 µM (inactive)	> 100 µM (inactive)	> 100 µM (inactive)	> 100 µM (inactive)	22.2 µM (inactive)	> 100 µM (inactive)	> 100 µM (inactive)	> 100 µM (inactive)	
COc1cc(OC2OC(CO)C(O)C(O)C2O)c2c(O)c3c(=O)cc(C)oc3cc2c1 (stereo not drawn)	29.5 µM (inactive)	> 100 µM (inactive)	> 100 µM (inactive)	> 100 µM (inactive)	> 100 µM (inactive)	> 100 µM (inactive)		> 100 µM (inactive)	> 100 µM (inactive)	> 100 µM (inactive)		> 100 µM (inactive)	> 100 µM (inactive)	> 100 µM (inactive)	> 100 µM (inactive)	> 100 µM (inactive)	> 100 µM (inactive)	> 100 µM (inactive)
CC(=O)OCc1ccc(-c2nc(C#N)c(N)o2)o1	> 10 µM (inactive)	> 10 µM (inactive)	> 10 µM (inactive)	> 10 µM (inactive)	> 10 µM (inactive)	> 10 µM (inactive)	> 10 µM (inactive)	> 10 µM (inactive)	> 10 µM (inactive)	> 10 µM (inactive)	> 10 µM (inactive)	> 10 µM (inactive)	> 10 µM (inactive)	> 10 µM (inactive)		> 10 µM (inactive)	> 10 µM (inactive)	
CCc1ccc(COC(=O)C2=C(C)NC(C)=C(C(=O)OCc3ccc(CC)cn3)C2C2=COCCO2)nc1	14.4 µM (inactive)	23.9 µM (inactive)	24.9 µM (inactive)	21.4 µM (inactive)	14 µM (inactive)	19.5 µM (inactive)	14.2 µM (inactive)	12.6 µM (inactive)	20 µM (inactive)	31.5 µM (inactive)	22 µM (inactive)	25.1 µM (inactive)	27.8 µM (inactive)	11.3 µM (inactive)	17.5 µM (inactive)	20.2 µM (inactive)	19.5 µM (inactive)	
O=C1C(N2CCNCC2)=C(Cl)C(=O)c2ncccc21	> 10 µM (inactive)	> 10 µM (inactive)	6.79 µM (inactive)	> 10 µM (inactive)	> 10 µM (inactive)	3.02 µM (inactive)	> 10 µM (inactive)	2.44 µM (inactive)	> 10 µM (inactive)	> 10 µM (inactive)		> 10 µM (inactive)	3.72 µM (inactive)	> 10 µM (inactive)	> 10 µM (inactive)			
O=C1CC2(CCC(O)(c3cccc4ccccc34)C(C(=O)c3cccc4ccccc34)C2)C(=O)c2ccccc2N1 (stereo not drawn)	46.7 µM (inactive)	25.9 µM (inactive)	25.8 µM (inactive)	7.93 µM (inactive)	6.78 µM (inactive)	36 µM (inactive)	17.7 µM (inactive)	25.9 µM (inactive)	62.2 µM (inactive)	7.78 µM (inactive)	> 100 µM (inactive)		24.2 µM (inactive)	34.5 µM (inactive)	11.1 µM (inactive)	23.7 µM (inactive)		> 100 µM (inactive)
COC(=O)[C@H](Cc1ccccc1)NP(=O)(O)OCC1C=CC(n2cc(C)c(=O)[nH]c2=O)O1 (stereo partly drawn)	> 100 µM (inactive)	> 100 µM (inactive)	> 100 µM (inactive)	> 100 µM (inactive)	> 100 µM (inactive)	> 100 µM (inactive)	> 100 µM (inactive)	> 100 µM (inactive)	> 100 µM (inactive)	> 100 µM (inactive)	> 100 µM (inactive)	> 100 µM (inactive)	> 100 µM (inactive)	> 100 µM (inactive)	> 100 µM (inactive)	> 100 µM (inactive)	> 100 µM (inactive)	
Cc1ccc2c(O)cc(-c3sccc3C)nc2n1	4.27 µM (inactive)	0.792 µM (active)	2.62 µM (inactive)	1.33 µM (inactive)	0.794 µM (active)	0.315 µM (active)	2.48 µM (inactive)	0.486 µM (active)	0.337 µM (active)	0.44 µM (active)	0.326 µM (active)	9.79 µM (inactive)	0.264 µM (active)		0.832 µM (active)	1.52 µM (inactive)	0.296 µM (active)	0.562 µM (active)
OCCN1c2ccccc2Sc2ccccc21	> 10 µM (inactive)	> 10 µM (inactive)	> 10 µM (inactive)	> 10 µM (inactive)	> 10 µM (inactive)	> 10 µM (inactive)	> 10 µM (inactive)	> 10 µM (inactive)	> 10 µM (inactive)		> 10 µM (inactive)	> 10 µM (inactive)	> 10 µM (inactive)		> 10 µM (inactive)		> 10 µM (inactive)	
O=C1Cc2c([nH]c3cc(Br)ccc23)-c2ccccc2N1	17.2 µM (inactive)		21.4 µM (inactive)	13.9 µM (inactive)	14.8 µM (inactive)	34.6 µM (inactive)	22.8 µM (inactive)	3.56 µM (inactive)	11.6 µM (inactive)	15.5 µM (inactive)		10.3 µM (inactive)	6.81 µM (inactive)	10.9 µM (inactive)	14.4 µM (inactive)	17.6 µM (inactive)	15 µM (inactive)	21.5 µM (inactive)
C[C@]12CC[C@H](O)CC1=CC[C@@H]1[C@@H]2CC[C@]2(C)C(=O)CC[C@@H]12 [PRASTERONE]	> 100 µM (inactive)	> 100 µM (inactive)	> 100 µM (inactive)	> 100 µM (inactive)	45.6 µM (inactive)	> 100 µM (inactive)		> 100 µM (inactive)	> 100 µM (inactive)		> 100 µM (inactive)	> 100 µM (inactive)	> 100 µM (inactive)	> 100 µM (inactive)	> 100 µM (inactive)	> 100 µM (inactive)	> 100 µM (inactive)	
